# Measurements reported in US20130178441A1, “Methods for Extending Progression-Free Survival using 10-Propargyl-10-Deazaaminopterin” (ALLOS THERAPEUTICS, INC., priority 2010, published 2013).
# Values joined by “and” are separate entries in the source; they are usually repeats but may differ in a detail not shown here. Identical values can stand only once. Marks after values point to notes of the source that are not given here.
# Test system: relapsed/refractory PTCL
# Test: PROPEL subset analysis: patients previously treated with ICE-based regimens (N=20) vs other patients (n=89)
# Type: in vivo, human
# Description: The prognosis of aggressive PTCL is dismal. Investigators have developed salvage regimens attempting to improve outcomes for patients with relapsed or refractory disease. One such regimen frequently used is ifosfamide, carboplatin, and etoposide (ICE) or ICE-based regimens (eg, and rituximab-ICE [RICE] and dexamethasome-ICE [DICE]). These regimens can have response rates approaching 70% and patients may proceed to a stem cell transplant, yet most patients tend to relapse quickly (Horwitz et al Blood 2005; 106:a2679). Thus, optimal approaches for patients with relapsed or refractory disease are needed, and agents based on a unique mechanism of action warrant study. This analysis was conducted to determine if pralatrexate offered a beneficial treatment option for patients after treatment with an ICE/RICE/DICE regimen. Methods: Pralatrexate was administered via intravenous push over 3 to 5 minutes at 30 mg/m^2/week for six weeks in 7-week cycles with concurrent 1 mg vitamin B12 intramuscular every 8 to 10 weeks and folic acid 1.0 to 1.25 mg by mouth once daily. 109 patients were treated with pralatrexate in the PROPEL study. All patients in the PROPEL study had received at least 1 prior therapy for PTCL. A subset of 20 patients had received ICE, RICE or DICE at some point prior to treatment with pralatrexate. The efficacy in these patients was compared to the remainder of the patient population who had not received ICE/RICE/DICE as a therapy for PTCL prior to pralatrexate (n=89). The patient population that previously received an ICE-based regimen was heavily pretreated with am edian of 3 prior systemic regimens (range, 2-11). The median age was 45 years, a younger patient population compared with the overall PROPEL population (59 years).
# ORR, duration of response, and progression-free survival (PFS) by independent central review and investigator assessment, and OS, are presented in Table 6. Details of the patients who responded to pralatrexate according to assessment by independent central review are provided in Table 7.
# [1] = 20 patients with prior ICE/RICE/DICE
# [2] = individual responders previously treated with ICE (N=8), central review, some values censored
# [3] = of the 8 patients who did not respond to ICE as most recent therapy
# [4] = prior ICE-based regimen, N=20, independent central review
# [5] = prior ICE-based regimen, N=20, independent central review, Kaplan-Meier
# [6] = prior ICE-based regimen, N=20, investigator assessment
# [7] = prior ICE-based regimen, N=20, investigator assessment, Kaplan-Meier
compound,measurement,setting,value
"C#CCC(Cc1cnc2nc(N)nc(N)c2n1)c1ccc(C(=O)N[C@@H](CCC(=O)O)C(=O)O)cc1 (mixture of isomers) [Pralatrexate, (2S)-2-[[4-[(1RS)-1-[(2,4-diaminopteridin-6-yl)methyl]but-3-ynyl]benzoyl]amino]pentanedioic acid]",CR/CRu based on investigators assessment,[1],25%
same,Complete responses [CR] by independent central review,[1],15%
same,ORR based on investigators assessment,[1],40%
same,Overall response rate (ORR) by independent central review,[1],40%
same,Median PFS in the 20 patients relative to that of the other patients,central review,over 3 times
same,Duration of Response (months),[2],17.1^b months and 13.1 months and 10.1 months and 3.4 months and 1.6 months
same,PFS (months),[2],14.4 months and 17.8 months and 4.8 months and 3.0 months
same,Duration of Response (months),"individual responders previously treated with ICE (N=8), central review, some values censored, listed as pralatrexate",1.3 months and 4.9 months
same,CR to pralatrexate,[3],2 patients
same,PR to pralatrexate,[3],1 patients
same,Patients who responded to pralatrexate,[3],3 patients
same,Patients who responded to pralatrexate,of the 15 patients who did not have a response to a prior ICE-based regimen,40%
same,Patients who proceeded to a stem cell transplant upon attaining a response to pralatrexate,of the 20 patients with prior ICE/RICE/DICE,Two
same,CR/CRu based on investigators assessment,other 89 patients,17%
same,CR/CRu by independent central review,other 89 patients,10%
same,Median PFS according to central review,other 89 patients,3.3 months
same,Median duration of response by central review,other 89 patients,9.4 months
same,Median duration of response per investigator assessment,other 89 patients,6.8 months
same,ORR based on investigators assessment,other 89 patients,39%
same,ORR by independent central review,other 89 patients (no prior ICE/RICE/DICE),27%
same,"OS, Median, months (95% CI)","prior ICE-based regimen, N=20, Kaplan-Meier","12.0 (5.2, 23.4) months"
same,"Duration of response, Range",[4],1.3-22.1 months
same,Tumor response: CR,[4],3 (15) n (%)
same,Tumor response: ORR (CR + PR),[4],8 (40) n (%)
same,Tumor response: PD,[4],4 (20) n (%)
same,Tumor response: PR,[4],5 (25) n (%)
same,Tumor response: SD,[4],2 (10) n (%)
same,"Duration of response, Median, months (95% CI)",[5],"13.1 months and 13.1 (3.4, NA) months"
same,"PFS, Median, months (95% CI)",[5],"14.4 months and 14.4 (1.5, NA) months"
same,Tumor response: CR,[6],5 (25) n (%)
same,Tumor response: NA (not assessable),[6],1 (5) n (%)
same,Tumor response: ORR (CR + PR),[6],8 (40) n (%)
same,Tumor response: PD,[6],6 (30) n (%)
same,Tumor response: PR,[6],3 (15) n (%)
same,Tumor response: SD,[6],5 (25) n (%)
same,"Duration of response, Median, months (95% CI)",[7],"16.2 months and 16.2 (3.4, NA) months"
same,"PFS, Median, months (95% CI)",[7],"4.8 (2.5, 14.4) months"
same,"OS, Range","prior ICE-based regimen, N=20, survival follow up ended at two years",1.1-24.0^d months
